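Following 48 hours of exposure in 96-well plates, responses at five concentrations were used to interpolate endpoints linearly. At the GI50, growth is halved.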 Activity calls are given as the source filed them. Cut-off read from the data, not from the text of the source: active = GI50 up to about 1.1 µM and inactive = higher.
Experiments:
Experiment in all cases: NCI-60 cell line screen, 48 h
NCI-H460 = tested on: NCI-H460
LOX IMVI = tested on: LOX IMVI
ACHN = tested on: ACHN
SK-MEL-5 = tested on: SK-MEL-5
HCT-15 = tested on: HCT-15
NCI/ADR-RES = tested on: NCI/ADR-RES
HT-29 = tested on: HT-29
NCI-H23 = tested on: NCI-H23
OVCAR-5 = tested on: OVCAR-5
SK-MEL-28 = tested on: SK-MEL-28
COLO 205 = tested on: COLO 205
SN12C = tested on: SN12C
UACC-257 = tested on: UACC-257
SW-620 = tested on: SW-620
MCF7 = tested on: MCF7
SNB-19 = tested on: SNB-19
A549 = tested on: A549
CAKI-1 = tested on: CAKI-1
CCRF-CEM = tested on: CCRF-CEM
RXF 393 = tested on: RXF 393

| SMILES | GI50 (NCI-H460) | GI50 (LOX IMVI) | GI50 (ACHN) | GI50 (SK-MEL-5) | GI50 (HCT-15) [µM] | GI50 (NCI/ADR-RES) | GI50 (HT-29) | GI50 (NCI-H23) | GI50 (OVCAR-5) | GI50 (SK-MEL-28) | GI50 (COLO 205) | GI50 (SN12C) | GI50 (UACC-257) | GI50 (SW-620) | GI50 (MCF7) | GI50 (SNB-19) | GI50 (A549) | GI50 (CAKI-1) | GI50 (CCRF-CEM) | GI50 (RXF 393) |
| --- | --- | --- | --- | --- | --- | --- | --- | --- | --- | --- | --- | --- | --- | --- | --- | --- | --- | --- | --- | --- |
| NC(C/C=C/P(=O)(O)O)C(=O)O (centres undefined) | > 100 µM (inactive) | > 100 µM (inactive) | > 100 µM (inactive) | > 100 µM (inactive) | > 100 | > 100 µM (inactive) | > 100 µM (inactive) | > 100 µM (inactive) | > 100 µM (inactive) | > 100 µM (inactive) | > 100 µM (inactive) | > 100 µM (inactive) | > 100 µM (inactive) | > 100 µM (inactive) | > 100 µM (inactive) | > 100 µM (inactive) | > 100 µM (inactive) | 2 µM (inactive) | > 100 µM (inactive) | > 100 µM (inactive) |
| CC(Cc1ccccc1)Nc1ncnc2c1ncn2C1OC(CO)CC1O (centres undefined) | > 100 µM (inactive) | > 100 µM (inactive) | > 100 µM (inactive) | > 100 µM (inactive) | > 100 | > 100 µM (inactive) | > 100 µM (inactive) | > 100 µM (inactive) | > 100 µM (inactive) | > 100 µM (inactive) | > 100 µM (inactive) | > 100 µM (inactive) | > 100 µM (inactive) | > 100 µM (inactive) | 0.611 µM (active) | > 100 µM (inactive) | > 100 µM (inactive) | > 100 µM (inactive) | > 100 µM (inactive) | > 100 µM (inactive) |
| CSc1nc2c(c(N3CCOCC3)n1)C(O)n1c(nc3ccccc31)S2 (centres undefined) | 13.6 µM (inactive) | > 100 µM (inactive) | 36.6 µM (inactive) | 3.23 µM (inactive) | 63 | 22.6 µM (inactive) | > 100 µM (inactive) | 67.8 µM (inactive) | > 100 µM (inactive) | – | 0.055 µM (active) | 77.8 µM (inactive) | > 100 µM (inactive) | 32.1 µM (inactive) | 23 µM (inactive) | 17.5 µM (inactive) | 29.6 µM (inactive) | > 100 µM (inactive) | 21.1 µM (inactive) | 80.4 µM (inactive) |
